The values that follow come from patent US20250290151A1, “Differentially-Methylated Regions of the Genome Useful as Markers of Embryo-Adult Transitions” (priority 2019, published 2025).

In one test the test system is adult bone marrow MSCs. The test can be described thus: H2O2-mediated apoptosis (survival) before and after knock-down of COX7A1. Particulars: 300 uM H2O2. It counts as cell-based, human. On the procedure:
(§1) Similarly, normal pre-EFT vascular progenitors were more sensitive to apoptosis at 37 uM of camptothecin (39% apoptosis) compared to adult aortic endothelial counterparts (25.5% apoptosis). In addition, H2O2-mediated apoptosis was measured in post-EFT cells (adult bone marrow MSCs) before and after knock-down of COX7A1 expression.

The test system of test [1] is normal pre-EFT vascular progenitors. Put plainly: TUNEL apoptosis assay after camptothecin, pre-EFT vascular progenitors. It counts as cell-based, human. Particulars: 37 uM camptothecin, 24 h. The procedure: (§2) The pre-EFT (DC) fibrosarcoma cell line HT1080 was infected with lentivirus expressing COX7A1 together with a control line expressing green fluorescent protein (GFP). The resulting cells were treated with 0, 0.37, and 37 uM camptothecin to generate a DNA damage response and apoptosis. TUNEL (TdT-mediated dUTP-X nick end labeling) adds label to termini of ssDNA and dsDNA. Readout used was fluorescent nuclei read by microscopy. In brief, cell lines were cultured in 96-well plates at 5000 cells/well and grown over night. The following day, the growth medium was removed and replaced with growth medium containing compounds and controls. After 24 h, the cells are fixed for 20 minutes using 4% PFA. Plates are stored at 4 deg C. in PBS until processing. Fixed cells were permeabilized with 0.1% Triton X-100 and 0.1% sodium citrate for 2 minutes on ice. […] 9 images per well were collected and analyzed for total cell number and number of cells stained for apoptosis.
as §1

The subject of test [2] is fibrosarcoma cell line HT1080. The test can be described thus: TUNEL apoptosis assay after camptothecin, HT1080 expressing COX7A1 vs GFP control. The class given is cell-based, human. Particulars: 0, 0.37 and 37 uM camptothecin, 24 h, p<0.05. The procedure:
as §2, §1

Test [3] has as its system adult aortic endothelial counterparts. The test can be described thus: TUNEL apoptosis assay after camptothecin, adult aortic endothelial cells. It counts as cell-based, human. Particulars: 37 uM camptothecin, 24 h. On the procedure:
as §2, §1

For test [4], the system named is xenograft breast tumors derived from the breast cancer cell line MCF-7. Put plainly: COX7A1 expression in MCF-7 xenograft breast tumors after doxorubicin. The class given is in vivo. Particulars: MCF-7 xenograft breast tumors treated with doxorubicin; controls 3.84 and 4.52. The source says: The present invention instead teaches the contrary, that these surviving CSCs are instead cancer cells that display a post-EFT pattern (i.e. a more mature pattern) of gene expression. Using the expression of the gene COX7A1 as a transcriptional marker of pre- or post-EFT cells wherein COX7A1 is expressed in post-EFT cells, we observe that pancreatic cancer with ablated KRAS leading to pancreatic CSCs, results in increased COX7A1 and CAT (also a post-EFT marker), not decreased as predicted by current models (FIG. 10). In addition, the treatment of xenograft breast tumors derived from the breast cancer cell line MCF-7 with the anti-tumor anthracycline antibiotic doxorubicin results in COX7A1 RFU levels of 5.04 and 5.57 compared to controls of 3.84 and 4.52 in controls, again indicative of the more mature state of surviving cells following chemotherapy. In addition, in the example of rectal cancer, levels of COX7A1 expression were 92.7 RFUs following radiotherapy compared to 75 RFUs in untreated rectal cancer (p<0.05). […]

SMILES strings stand for the structures. Several values for one entry are separate records, joined by “and”; a condition that tells them apart may be missing. Equal values may be shown once.

With `OO` [H2O2], the cells surviving in the test on adult bone marrow MSCs (MSCs after knockdown of COX7A1 (iTR modality), p<0.05) amounted to 59.8%; in the test with adult bone marrow MSCs (normal adult bone marrow MSCs) it was 82.4%.
Take `CC[C@@]1(O)C(=O)OCc2c1cc1n(c2=O)Cc2cc3ccccc3nc2-1` [camptothecin]: the figures for the apoptosis in test [1] and in test [3] were 39% and 25.5%, respectively. The “sensitivity to apoptosis (TUNEL)” value in test [2] was “significantly decreased sensitivity to apoptosis”.
Consider `COc1cccc2c1C(=O)c1c(O)c3c(c(O)c1C2=O)C[C@@](O)(C(=O)CO)C[C@@H]3O[C@H]1C[C@H](N)[C@H](O)[C@H](C)O1` [doxorubicin], for which the “COX7A1 RFU levels” value in test [4] is 5.04 RFU and 5.57 RFU.
